pIC50: −log10 of the molar value.
Assays:
[1] = Inhibition of Toxoplasma gondii thymidylate synthase
[2] = target: Thymidylate synthase (Homo sapiens, UniProt P04818); experiment: Inhibition of human thymidylate synthase
[3] = target: Thymidylate synthase (Escherichia coli, UniProt C3SWJ7); experiment: Inhibition of Escherichia coli thymidylate synthase
[4] = Inhibition of Toxoplasma gondii DHFR
[5] = Selectivity ratio of IC50 for Toxoplasma gondii DHFR over IC50 for human recombinant DHFR
[6] = target: T1, Dihydrofolate reductase (Homo sapiens, UniProt P00374)
T1 sequence (P00374 whole entry): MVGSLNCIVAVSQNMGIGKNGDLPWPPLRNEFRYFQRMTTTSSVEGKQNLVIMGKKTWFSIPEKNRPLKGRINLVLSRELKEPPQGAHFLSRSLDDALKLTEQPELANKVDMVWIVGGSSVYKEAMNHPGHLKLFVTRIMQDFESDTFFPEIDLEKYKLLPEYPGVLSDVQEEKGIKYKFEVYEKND

[7] = Inhibition of Escherichia coli DHFR
[8] = system: Escherichia coli; experiment: Inhibition of Escherichia coli DHFR at >[…] uM
[9] = target: T2, Dihydrofolate reductase (Homo sapiens) (UniProt P00374); experiment: Inhibition of human recombinant DHFR at >62 uM
T2 sequence (whole entry): T1 sequence (P00374 whole entry)

[10] = target: Thymidylate synthase (Escherichia coli) (UniProt C3SWJ7); experiment: Inhibition of Escherichia coli thymidylate synthase at >20 uM
Sequence of Thymidylate synthase (Escherichia coli) (C3SWJ7 1-264): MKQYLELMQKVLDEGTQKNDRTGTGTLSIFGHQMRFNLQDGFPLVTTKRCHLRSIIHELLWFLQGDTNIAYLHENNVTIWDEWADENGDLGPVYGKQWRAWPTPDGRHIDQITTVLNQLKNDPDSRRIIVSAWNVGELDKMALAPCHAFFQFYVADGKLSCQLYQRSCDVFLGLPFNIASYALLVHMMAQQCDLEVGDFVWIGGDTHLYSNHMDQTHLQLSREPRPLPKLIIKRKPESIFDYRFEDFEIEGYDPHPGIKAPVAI

[11] = target: T2, Dihydrofolate reductase (Homo sapiens); experiment: Inhibition of human recombinant DHFR at >[…] uM
[12] = system: Toxoplasma gondii; experiment: Inhibition of Toxoplasma gondii thymidylate synthase at >20 uM
[13] = system: Toxoplasma gondii; experiment: Inhibition of Toxoplasma gondii thymidylate synthase at >[…] uM
[14] = target: Thymidylate synthase (Escherichia coli) (UniProt C3SWJ7); experiment: Inhibition of Escherichia coli thymidylate synthase at >[…] uM
[15] = target: Thymidylate synthase (Escherichia coli) (UniProt C3SWJ7); experiment: Inhibition of Escherichia coli thymidylate synthase >[…] uM
[16] = system: Escherichia coli; experiment: Inhibition of Escherichia coli DHFR at >30 uM

Sequence of Thymidylate synthase (Escherichia coli, UniProt C3SWJ7) (C3SWJ7 whole entry): as the sequence (C3SWJ7 1-264) above
Sequence of Thymidylate synthase (Homo sapiens, UniProt P04818) (P04818 whole entry): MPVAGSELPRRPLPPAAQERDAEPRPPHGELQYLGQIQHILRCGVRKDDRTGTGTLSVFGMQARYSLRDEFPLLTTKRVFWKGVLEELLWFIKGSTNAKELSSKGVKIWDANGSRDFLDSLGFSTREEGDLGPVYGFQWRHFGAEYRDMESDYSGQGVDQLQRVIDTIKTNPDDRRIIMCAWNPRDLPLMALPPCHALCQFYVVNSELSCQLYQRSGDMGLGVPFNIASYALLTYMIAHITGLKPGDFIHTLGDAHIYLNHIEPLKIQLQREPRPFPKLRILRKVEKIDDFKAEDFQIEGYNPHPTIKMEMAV

Structure (SMILES)	pIC50 [1]	pIC50 [2]	pIC50 [3]	pIC50 [4]	Ratio IC50 [5]	pIC50 [6]	pIC50 [7]	inhibition [8] [%]	inhibition [9] [%]	inhibition [10] [%]	inhibition [11] [%]	inhibition [12] [%]	inhibition [13] [%]	inhibition [14] [%]	inhibition [15] [%]	inhibition [16] [%]
Cc1cc2nc(N)[nH]c(=O)c2n1Cc1ccncc1	4.82	5.64	4.92	4.70	> 1.8	< 4.43	4.41	–	–	–	–	–	–	–	–	–
Cc1cc2nc(N)[nH]c(=O)c2n1Cc1ccc(Cl)cc1	4.77	5.54	5.82	6.46	> 100	< 4.46	< 4.46	0	–	–	–	–	–	–	–	–
Cc1cc2nc(N)[nH]c(=O)c2n1Cc1ccc(C(=O)N[C@@H](CCC(=O)O)C(=O)O)cc1	6.64	7.34	7.16	7.64	5.2	6.92	< 4.64	23	–	–	–	–	–	–	–	–
Cc1[nH]c2nc(N)[nH]c(=O)c2c1Sc1ccc([N+](=O)[O-])cc1	–	–	–	–	–	< 4.27	–	–	–	–	–	–	–	–	–	–
Cc1cc2nc(N)[nH]c(=O)c2n1Cc1ccc(F)cc1	4.66	5.43	4.51	5.74	> 20.5	< 4.43	< 4.43	0	–	–	–	–	–	–	–	–
Cc1cc2nc(N)[nH]c(=O)c2n1Cc1ccc([N+](=O)[O-])cc1	4.55	5.85	4.85	6.48	100	4.48	< 4.48	0	–	–	–	–	–	–	–	–
Cc1[nH]c2nc(N)[nH]c(=O)c2c1Sc1ccc(Cl)c(Cl)c1	–	–	–	–	–	< 4.21	–	–	0	–	–	–	–	–	–	–
COc1ccc(Cn2c(C)cc3nc(N)[nH]c(=O)c32)cc1	4.77	5.82	4.82	5.46	> 10	< 4.46	< 4.46	0	–	–	–	–	–	–	–	–
Cc1cc2nc(N)[nH]c(=O)c2n1Cc1cc(Br)cc(Br)c1	< 4.70	5.00	< 4.70	4.62	> 1	< 4.62	< 4.62	0	–	36	0	24	–	–	–	–
Cc1cc2nc(N)[nH]c(=O)c2n1Cc1ccccc1	< 4.41	4.70	< 4.41	5.41	> 10	< 4.41	< 4.41	–	–	–	–	–	0	–	–	–
Cc1cc2nc(N)[nH]c(=O)c2n1Cc1ccc(Cl)c(Cl)c1	4.57	5.27	4.57	5.80	> 20	< 4.49	< 4.49	0	–	–	–	–	–	–	–	–
Cc1cc2nc(N)[nH]c(=O)c2n1Cc1ccc(OC(F)(F)F)cc1	4.89	5.89	5.12	6.52	> 117	< 4.46	< 4.46	0	–	–	–	–	–	–	–	–
Cc1cc2nc(N)[nH]c(=O)c2n1Cc1cc(Cl)cc(Cl)c1	< 4.59	< 4.59	< 4.59	4.82	> 2.1	< 4.51	< 4.51	0	–	–	–	–	13	0	15	–
Cc1cc2nc(N)[nH]c(=O)c2n1Cc1ccc(Br)cc1	4.74	5.89	5.12	6.57	> 130	< 4.46	< 4.52	–	–	–	–	–	–	–	–	10

Reference: ChEMBL document CHEMBL1140703, “Design, synthesis, and biological evaluation of classical and nonclassical 2-amino-4-oxo-5-substituted-6-methylpyrrolo[3,2-d]pyrimidines as dual thymidylate synthase and dihydrofolate reductase inhibitors” (J Med Chem, 2008)
